Test results taken from ChEMBL document CHEMBL1201862, “PubChem BioAssay data set” (2004).
Calls of active or inactive are those of the source.

Legend:
[1] = biological target: T1, Polyadenylate-binding protein 1 (Homo sapiens, UniProt P11940); experiment: MLLE binding blockers, Cy5 peptide tracer – biochemical, fluorescence polarization, Cy5-PAM2 peptide, secondary, miRNA deadenylation inhibitor project, dose response (AID 602260); assay type: functional; settings: read-out: IC50_Mean
[2] = biological target: T1, Polyadenylate-binding protein 1; experiment: MLLE domain peptide-binding blockers, IC50 – biochemical, fluorescence polarization, FITC-PAM2 peptide, dose response (AID 602259); assay type: functional; settings: read-out: IC50_Mean
[3] = Trypanosoma cruzi growth suppression in host cells – NIH3T3 host cells, beta-gal luminescence, confirmation (AID 2044); assay type: functional, cell-based;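 also: intracellular parasites grown in NIH/3T3 mouse fibroblasts as host cells; luminescent beta-galactosidase reporter signal from transgenic T. cruzi replicating inside host cells; inhibitors lower the luminescence signal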
[4] = Luminescence Cell-Based Dose Response HTS to Identify Inhibitors of 5'UTR Stem-Loop Driven Prion Protein mRNA Translation in H4 Neuroglioblastoma Cells. [Related pubchem assays: 1827 (Project Summary), 1813 (Primary HTS)]; assay type: functional
[5] = NIH3T3 cell viability loss – ATP luminescence, mouse fibroblasts, counter-screen, dose response (AID 2010); assay type: functional, cell-based;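 also: cells exposed to compound for about 90 hours before reading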
INS1 = experiment: INS-1E survival protection against cytokine death – cell-based, luminescence, retest, dose response (AID 449756); assay type: functional; settings: Rattus norvegicus;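 also: cell death triggered by IL-1 beta plus TNF-alpha plus IFN-gamma mixture; protective hits raise ATP signal compared with cytokine alone wells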
Protein skinhead-1 = biological target: T2, Protein skinhead-1 (Caenorhabditis elegans, UniProt P34707); assay type: functional
T2 sequence (P34707 whole entry): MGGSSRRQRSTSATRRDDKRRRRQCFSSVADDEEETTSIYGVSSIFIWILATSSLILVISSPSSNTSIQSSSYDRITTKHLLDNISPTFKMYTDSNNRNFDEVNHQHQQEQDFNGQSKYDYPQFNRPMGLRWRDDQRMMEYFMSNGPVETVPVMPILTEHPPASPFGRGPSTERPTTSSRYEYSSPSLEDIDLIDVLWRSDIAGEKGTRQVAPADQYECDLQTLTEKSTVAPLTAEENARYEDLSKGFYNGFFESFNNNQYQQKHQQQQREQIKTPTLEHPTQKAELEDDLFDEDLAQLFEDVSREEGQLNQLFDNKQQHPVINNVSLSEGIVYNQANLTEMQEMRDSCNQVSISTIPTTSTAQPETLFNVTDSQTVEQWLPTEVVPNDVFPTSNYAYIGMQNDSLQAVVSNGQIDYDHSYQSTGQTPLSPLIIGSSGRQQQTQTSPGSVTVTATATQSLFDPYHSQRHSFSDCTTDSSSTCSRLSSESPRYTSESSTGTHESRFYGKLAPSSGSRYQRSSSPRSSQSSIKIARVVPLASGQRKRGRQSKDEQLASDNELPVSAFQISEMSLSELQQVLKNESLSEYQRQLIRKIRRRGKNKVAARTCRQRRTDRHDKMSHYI

[6] = alpha-synuclein stem-loop luciferase translation blockers – H4 neuroglioma cells, luminescence, confirmation (AID 1988); assay type: functional, cell-based
[7] = luciferase reporter signal suppression in cells – H4 neuroglioma cells, luminescence, dose response (AID 1990); assay type: functional, cell-based
[8] = viability of HCT116 lacking mutant beta-catenin – cell-based, human colon tumor, dose response (AID 1045); assay type: functional;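 also: HCT116 colon tumor cells with beta catenin knocked out; cells exposed to compound for 60 hours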
[9] = viability of PTEN-deleted HCT116 cells – cell-based, HCT116 PTEN knockout, dose response (AID 1047); assay type: functional;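 also: HCT116 colon tumor cells with PTEN knocked out; cells exposed to compound for 60 hours before readout; potency for loss of cell viability measured by luminescence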
Fatty acid synthase [10] = biological target: T3, Fatty acid synthase (Homo sapiens, UniProt P49327); experiment: inhibition of human FAS-TE enzyme activity – biochemical, endpoint fluorescence intensity, uHTS hits, dose response (AID 624327); assay type: functional;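 also: fluorescence from hydrolysis of an O-methyl fluorescein acyl ester substrate by the enzyme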
T3 sequence (P49327 whole entry): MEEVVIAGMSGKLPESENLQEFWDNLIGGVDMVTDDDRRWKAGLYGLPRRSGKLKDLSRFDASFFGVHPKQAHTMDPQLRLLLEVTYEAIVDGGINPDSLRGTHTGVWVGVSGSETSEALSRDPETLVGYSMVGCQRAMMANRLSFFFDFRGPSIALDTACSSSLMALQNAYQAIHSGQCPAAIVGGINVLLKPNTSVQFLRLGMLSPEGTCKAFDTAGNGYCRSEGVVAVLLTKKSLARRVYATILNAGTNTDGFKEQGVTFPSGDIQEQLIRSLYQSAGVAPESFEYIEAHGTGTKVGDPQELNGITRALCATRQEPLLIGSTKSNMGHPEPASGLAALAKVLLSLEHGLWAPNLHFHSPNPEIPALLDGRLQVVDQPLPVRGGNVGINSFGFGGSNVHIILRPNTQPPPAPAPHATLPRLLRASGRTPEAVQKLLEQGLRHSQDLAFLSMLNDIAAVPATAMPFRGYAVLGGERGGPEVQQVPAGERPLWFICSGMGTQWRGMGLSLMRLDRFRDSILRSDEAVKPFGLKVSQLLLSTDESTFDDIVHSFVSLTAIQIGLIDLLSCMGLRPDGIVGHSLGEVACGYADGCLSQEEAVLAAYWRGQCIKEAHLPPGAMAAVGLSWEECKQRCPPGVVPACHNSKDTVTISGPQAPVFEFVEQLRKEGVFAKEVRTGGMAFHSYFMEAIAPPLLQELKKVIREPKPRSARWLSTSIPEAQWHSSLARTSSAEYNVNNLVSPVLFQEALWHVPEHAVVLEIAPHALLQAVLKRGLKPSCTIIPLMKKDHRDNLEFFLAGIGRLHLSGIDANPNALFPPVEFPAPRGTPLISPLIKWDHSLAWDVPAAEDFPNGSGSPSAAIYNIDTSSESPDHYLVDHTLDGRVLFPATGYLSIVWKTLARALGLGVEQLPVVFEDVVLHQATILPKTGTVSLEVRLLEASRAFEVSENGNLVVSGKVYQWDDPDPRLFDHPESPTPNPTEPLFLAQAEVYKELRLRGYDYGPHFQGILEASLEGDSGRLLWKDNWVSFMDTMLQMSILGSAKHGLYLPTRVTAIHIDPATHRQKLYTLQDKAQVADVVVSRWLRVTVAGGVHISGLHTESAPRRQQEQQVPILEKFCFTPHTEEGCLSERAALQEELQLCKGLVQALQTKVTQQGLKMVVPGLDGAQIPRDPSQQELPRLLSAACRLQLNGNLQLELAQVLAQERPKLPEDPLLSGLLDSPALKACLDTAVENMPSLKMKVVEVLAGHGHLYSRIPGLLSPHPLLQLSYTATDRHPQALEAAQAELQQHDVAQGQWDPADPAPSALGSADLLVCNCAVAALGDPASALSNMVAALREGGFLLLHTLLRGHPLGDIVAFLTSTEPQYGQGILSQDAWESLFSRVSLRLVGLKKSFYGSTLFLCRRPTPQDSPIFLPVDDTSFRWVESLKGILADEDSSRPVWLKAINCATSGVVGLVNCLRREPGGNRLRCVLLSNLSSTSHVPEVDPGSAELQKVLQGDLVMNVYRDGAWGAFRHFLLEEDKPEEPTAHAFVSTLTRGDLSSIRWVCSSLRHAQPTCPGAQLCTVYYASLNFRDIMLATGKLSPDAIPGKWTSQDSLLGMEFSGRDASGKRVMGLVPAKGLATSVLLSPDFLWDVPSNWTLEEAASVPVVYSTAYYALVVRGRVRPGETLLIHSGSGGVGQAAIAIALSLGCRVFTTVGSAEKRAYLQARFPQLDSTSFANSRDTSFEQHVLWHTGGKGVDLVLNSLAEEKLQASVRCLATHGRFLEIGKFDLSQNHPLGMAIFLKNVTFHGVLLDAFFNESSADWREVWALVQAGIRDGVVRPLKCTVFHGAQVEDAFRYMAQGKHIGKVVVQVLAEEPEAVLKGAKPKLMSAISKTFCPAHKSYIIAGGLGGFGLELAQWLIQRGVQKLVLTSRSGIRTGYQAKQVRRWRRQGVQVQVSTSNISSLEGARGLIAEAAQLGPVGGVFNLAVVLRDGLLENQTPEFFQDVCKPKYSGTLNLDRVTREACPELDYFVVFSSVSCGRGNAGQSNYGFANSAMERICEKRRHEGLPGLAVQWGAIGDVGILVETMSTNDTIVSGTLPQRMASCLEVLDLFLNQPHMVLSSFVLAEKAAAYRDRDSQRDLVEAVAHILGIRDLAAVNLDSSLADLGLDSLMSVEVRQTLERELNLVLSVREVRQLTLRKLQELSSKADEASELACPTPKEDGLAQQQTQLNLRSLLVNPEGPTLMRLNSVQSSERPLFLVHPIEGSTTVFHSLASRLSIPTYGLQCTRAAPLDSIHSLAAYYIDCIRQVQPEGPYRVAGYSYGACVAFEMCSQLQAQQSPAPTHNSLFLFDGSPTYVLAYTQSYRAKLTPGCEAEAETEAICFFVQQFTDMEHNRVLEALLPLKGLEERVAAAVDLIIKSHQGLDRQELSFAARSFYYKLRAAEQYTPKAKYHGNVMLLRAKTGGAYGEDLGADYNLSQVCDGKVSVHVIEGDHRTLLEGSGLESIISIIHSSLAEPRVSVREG

Fatty acid synthase [11] = biological target: T3, Fatty acid synthase; experiment: inhibition of human FAS-TE enzyme activity – biochemical, kinetic fluorescence intensity, dose response (AID 624326); assay type: functional;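 also: rate of fluorescence rise from hydrolysis of a fluorogenic O-methyl fluorescein ester substrate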
cells = assay type: functional
[12] = biological target: FAD-linked sulfhydryl oxidase ALR (Homo sapiens, UniProt P55789); experiment: ALR-catalysed DTT oxidation blockers – biochemical, H2O2 detection, luminescence, cherry-pick, dose response (AID 493248)
Chain of FAD-linked sulfhydryl oxidase ALR (P55789 whole entry): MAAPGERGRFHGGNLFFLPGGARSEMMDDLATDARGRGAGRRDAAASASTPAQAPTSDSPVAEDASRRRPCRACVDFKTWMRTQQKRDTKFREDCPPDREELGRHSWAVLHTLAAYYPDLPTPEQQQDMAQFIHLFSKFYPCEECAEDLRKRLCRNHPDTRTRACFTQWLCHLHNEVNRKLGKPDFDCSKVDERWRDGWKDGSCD

T1 sequence (P11940 whole entry, the tested form may be a part): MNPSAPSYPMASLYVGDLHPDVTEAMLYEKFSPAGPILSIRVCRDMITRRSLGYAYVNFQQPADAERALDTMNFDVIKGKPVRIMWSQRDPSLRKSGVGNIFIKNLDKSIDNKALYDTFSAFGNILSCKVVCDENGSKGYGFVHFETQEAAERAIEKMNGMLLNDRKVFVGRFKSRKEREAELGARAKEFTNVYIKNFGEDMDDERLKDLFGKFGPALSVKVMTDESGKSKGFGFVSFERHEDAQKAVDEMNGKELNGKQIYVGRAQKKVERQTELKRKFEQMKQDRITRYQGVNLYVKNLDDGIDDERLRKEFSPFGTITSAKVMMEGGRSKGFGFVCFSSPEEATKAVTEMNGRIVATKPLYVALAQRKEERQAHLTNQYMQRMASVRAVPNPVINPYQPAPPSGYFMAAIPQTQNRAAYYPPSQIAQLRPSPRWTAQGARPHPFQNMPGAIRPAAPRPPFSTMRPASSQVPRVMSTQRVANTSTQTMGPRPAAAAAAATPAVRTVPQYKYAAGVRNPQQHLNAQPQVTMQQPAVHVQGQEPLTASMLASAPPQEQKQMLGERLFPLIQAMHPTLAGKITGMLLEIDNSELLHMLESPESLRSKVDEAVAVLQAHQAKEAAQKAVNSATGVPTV

For `O=C(COc1ccc(C(=S)N2CCOCC2)cc1Cl)Nc1ccccc1Cl`, the IC50 [1] was > 66 µM (inactive) and the IC50 [2] was > 66 µM (inactive).

With `COc1cc(CNC(C)c2ccccc2)cc(Br)c1OCc1ccc(F)cc1` (centres undefined) the EC50 [3] was 2.41 µM (active), the EC50 [4] was > 120 µM (not active) and the EC50 [5] was > 60 µM (not active). The AC50 (INS1) was 6.99 µM (active), the IC50 (Protein skinhead-1) was 7.7 µM (active) and the EC50 [6] was 17.7 µM (active). The EC50 [7] was 19.2 µM (active).

In the case of `CCCOc1ccc(Cc2c(Cl)nc(SC)nc2NC)cc1`, the AC50 (INS1) is reported as 3.53 µM (active).

In the case of `Cc1cc(N2CCN(S(=O)(=O)c3ccc(Cl)cc3)CC2)c2ccccc2n1`, the EC50 [8] is reported as 24.9 µM (active), the AC50 (INS1) is reported as 6.39 µM (active) and the EC50 [9] is reported as 26.3 µM (active).

With `O=C(COc1ccc(Cl)cc1Cl)Nn1c(=S)[nH]c2ncccc2c1=O` the IC50 [1] was > 66 µM (inactive) and the IC50 [2] was > 66 µM (inactive).

For `O=C(COC(=O)c1cc([N+](=O)[O-])ccc1N1CCCC1)Nc1ccccc1OC(F)F`, the IC50 (Fatty acid synthase [10]) was 8.72 µM (active) and the IC50 (Fatty acid synthase [11]) was 9.1 µM (active).

In the case of `O=C(NC(=S)Nc1cc([N+](=O)[O-])ccc1O)c1cccnc1`, the IC50 [1] is reported as > 66 µM (inactive) and the IC50 [2] is reported as > 66 µM (inactive).

For `O=C(Nc1nnc(-c2ccccc2Cl)o1)c1ccco1`, the IC50 (cells) was 11.8 µM (active).

With `COc1ccccc1NC(=O)CN1CCSc2ccccc21` the AC50 [12] was 1.32 µM (active).

With `CN1C[C@H](C(=O)N[C@]2(C)O[C@@]3(O)[C@@H]4CCCN4C(=O)[C@H](Cc4ccccc4)N3C2=O)CC2c3cccc4[nH]cc(c34)C[C@H]21` (some centres undefined) the IC50 (Fatty acid synthase [10]) was 9.27 µM (active) and the IC50 (Fatty acid synthase [11]) was 15.6 µM (active).

For `CC(C)(C)c1ccc(OCCSc2nc3ccccc3n2CC(=O)O)cc1`, the IC50 (Fatty acid synthase [10]) was 2.39 µM (active) and the IC50 (Fatty acid synthase [11]) was 2.14 µM (active).

In the case of `CCCc1nnc(NC(=O)c2cc3ccccc3oc2=O)s1`, the IC50 (cells) is reported as 2.83 µM (active).

In the case of `O=C(OCc1nnc(-c2ccccc2)o1)c1cc([N+](=O)[O-])ccc1Cl`, the IC50 (cells) is reported as 11.8 µM (active).

With `c1ccc(Cc2nnc3sc(-c4ccncc4)nn23)cc1` the IC50 [1] was > 66 µM (inactive) and the IC50 [2] was > 66 µM (inactive).

For `COc1ccc([C@H]2CC(=O)C=C(c3ccc(C)c([N+](=O)[O-])c3)C2)cc1`, the IC50 (Fatty acid synthase [10]) was 2.65 µM (active) and the IC50 (Fatty acid synthase [11]) was 2.14 µM (active).

In the case of `CC(=O)Nc1ccc(NC(=O)c2cc([N+](=O)[O-])cc([N+](=O)[O-])c2)cc1`, the EC50 [3] is reported as 1.63 µM (active), the IC50 (cells) is reported as 13.9 µM (active) and the EC50 [5] is reported as > 60 µM (not active).

For `CCN(CC(=O)Nc1c(F)cccc1F)C(=O)Cc1ccc2c(c1)CCC2`, the IC50 [1] was > 66 µM (inactive) and the IC50 [2] was > 66 µM (inactive).

For `Cc1occc(=O)c1OC(=O)Nc1ccc(Cl)c(Cl)c1`, the AC50 (INS1) was 5.88 µM (active).

For `Nc1ccc(NC(=O)c2cccs2)cc1`, the AC50 [12] was 0.515 µM (active).

For `CCOC(=O)N1CCN(Cc2c(O)ccc3ccccc23)CC1`, the IC50 [1] was > 66 µM (inactive) and the IC50 [2] was > 66 µM (inactive).

With `COc1ccc(C(=O)OCC(=O)Nc2ccccc2)cc1[N+](=O)[O-]` the IC50 (Fatty acid synthase [10]) was 7.38 µM (active) and the IC50 (Fatty acid synthase [11]) was 9.96 µM (active).

With `CCn1c2ccccc2c2nnc(SCc3ccc(C(=O)OC)o3)nc21` the IC50 [1] was > 66 µM (inactive) and the IC50 [2] was > 66 µM (inactive).

In the case of `COc1ccc(C2C=C(c3ccc(C)cc3)Nc3ncnn32)cc1` (centres undefined), the IC50 [1] is reported as > 66 µM (inactive) and the IC50 [2] is reported as > 66 µM (inactive).

For `O=C(NC1CCCCC1)C1CC(=O)N(c2cccc([N+](=O)[O-])c2)C1` (centres undefined), the IC50 (Fatty acid synthase [10]) was 3.47 µM (active) and the IC50 (Fatty acid synthase [11]) was 1.89 µM (active).

With `CNC(=S)NN=C(C)c1ccc(OC)cc1O` the IC50 [1] was > 66 µM (inactive) and the IC50 [2] was > 66 µM (inactive).

In the case of `Cc1ccc(Oc2ccc(S(=O)(=O)Nc3ccc(C(=O)O)cc3)cc2)cc1`, the AC50 [12] is reported as 0.714 µM (active).

For `CC(=O)c1cccc(OC(=O)Oc2cccc(C(C)=O)c2)c1`, the IC50 (Fatty acid synthase [10]) was 10.5 µM (active) and the IC50 (Fatty acid synthase [11]) was 6.11 µM (active).

For `CC(=O)Oc1ccc(/C=N/NC(=O)C2CCCN2S(=O)(=O)c2ccc(Cl)cc2)cc1` (centres undefined), the AC50 [12] was 12.7 µM (active).
